Measured values reported in patent US9238619B2, “Phenalkylamine derivatives, pharmaceutical compositions containing them, and their use in therapy” (AbbVie Deutschland GmbH & Co. KG, priority 2010, dated 2016).
Structures can show the parent of a compound that is named as a salt.

target: human GlyT1c transporter (Homo sapiens (Human), UniProt P48067); assay: Radioligand binding assays using recombinant CHO cell membranes expressing human GlyT1; settings: read-out: radioligand binding Kiapp
Method: Radioligand binding to human GlyT1c transporter-expressing membranes was determined as described in Mezler et al., Molecular Pharmacology 74:1705-1715, 2008.

human GlyT1c transporter, sequence (P48067 whole entry): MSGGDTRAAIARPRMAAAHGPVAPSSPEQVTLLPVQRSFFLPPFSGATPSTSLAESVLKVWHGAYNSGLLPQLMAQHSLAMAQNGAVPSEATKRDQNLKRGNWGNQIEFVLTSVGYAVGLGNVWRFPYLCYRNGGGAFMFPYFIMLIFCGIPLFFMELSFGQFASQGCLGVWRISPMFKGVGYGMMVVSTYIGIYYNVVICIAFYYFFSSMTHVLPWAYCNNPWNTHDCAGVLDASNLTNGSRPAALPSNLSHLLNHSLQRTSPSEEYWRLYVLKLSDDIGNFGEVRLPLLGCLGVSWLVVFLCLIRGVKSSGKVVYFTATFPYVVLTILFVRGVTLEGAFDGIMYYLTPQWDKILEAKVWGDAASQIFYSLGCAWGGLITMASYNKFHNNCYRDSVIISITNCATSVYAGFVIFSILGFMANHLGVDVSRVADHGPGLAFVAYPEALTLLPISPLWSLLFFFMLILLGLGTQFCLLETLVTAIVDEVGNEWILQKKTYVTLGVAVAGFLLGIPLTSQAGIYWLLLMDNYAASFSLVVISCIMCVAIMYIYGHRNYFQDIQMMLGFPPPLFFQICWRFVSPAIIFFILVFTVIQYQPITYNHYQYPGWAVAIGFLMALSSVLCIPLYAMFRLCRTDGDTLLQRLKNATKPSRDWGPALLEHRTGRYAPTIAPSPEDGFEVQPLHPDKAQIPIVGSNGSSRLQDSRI

| Ki [nM] | Compound |
| --- | --- |
| ≤ 10000 | CCCS(=O)(=O)N(C)Cc1cccc(C(CNC(=O)OC(C)(C)C)C2(c3ccc(Cl)cc3)CCC2)c1 (stereo not drawn) [Example 40, tert-Butyl {2-[1-(4-chlorophenyl)cyclobutyl]-2-(3-{[methyl(propylsulfonyl)amino]methyl}phenyl)ethyl}carbamate] |
| ≤ 10000 | CN(Cc1cccc(C(CNC(=O)OC(C)(C)C)C2(c3ccc(Cl)cc3)CCC2)c1)S(=O)(=O)c1cn(C)cn1 (stereo not drawn) [Example 41, tert-Butyl {2-[1-(4-chlorophenyl)cyclobutyl]-2-[3-({methyl[(1-methyl-1H-imidazol-4-yl)sulfonyl]amino}methyl)phenyl]ethyl}carbamate] |
| ≤ 10000 | CN(Cc1cccc(C(CN)C2(c3ccc(Cl)cc3)CCC2)c1)S(=O)(=O)c1cn(C)cn1 (stereo not drawn) [Example 44, N-(3-{2-Amino-1-[1-(4-chlorophenyl)cyclobutyl]ethyl}benzyl)-N,1-dimethyl-1H-imidazole-4-sulfonamide hydrochloride] |
| ≤ 10000 | CN(Cc1cccc(C(CN)C2(c3ccc(Cl)cc3)CCC2)c1)S(=O)(=O)c1cnn(C)c1 (stereo not drawn) [Example 45, N-(3-{2-Amino-1-[1-(4-chlorophenyl)cyclobutyl]ethyl}benzyl)-N,1-dimethyl-1H-pyrazole-4-sulfonamide hydrochloride] |
| ≤ 10000 | CCOC(=O)N1CC(Cc2ccccc2)(c2cccc(OCCNS(=O)(=O)c3cnn(C)c3)c2)C1 [Example 46, 3-Benzyl-3-{3-[2-(1-methyl-1H-pyrazole-4-sulfonylamino)-ethoxy]-phenyl}-azetidine-1-carboxylic acid ethyl ester] |
| ≤ 1000 | CCOC(=O)N1CC(Cc2ccccc2)(c2cccc(OCCNS(=O)(=O)c3cn(C)cn3)c2)C1 [Example 47, 3-Benzyl-3-{3-[2-(1-methyl-1H-imidazole-4-sulfonylamino)-ethoxy]-phenyl}-azetidine-1-carboxylic acid ethyl ester] |
| ≤ 1000 | CCOC(=O)N1CC(Cc2ccccc2)(c2cccc(OCCNS(=O)(=O)CC3CC3)c2)C1 [Example 48, 3-Benzyl-3-[3-(2-cyclopropylmethanesulfonylamino-ethoxy)-phenyl]-azetidine-1-carboxylic acid ethyl ester] |
| ≤ 1000 | O=S(=O)(CC1CC1)NCCOc1cccc(C2(Cc3ccccc3)CNC2)c1 [Example 49, N-{2-[3-(3-Benzyl-azetidin-3-yl)-phenoxy]-ethyl}-C-cyclopropyl-methane sulfonamide] |
| ≤ 100 | Cn1cc(S(=O)(=O)NCCOc2cccc(C3(Cc4ccccc4)CNC3)c2)cn1 [Example 50, 1-Methyl-1H-pyrazole-4-sulfonic acid {2-[3-(3-benzyl-azetidin-3-yl)-phenoxy]-ethyl}-amide] |
| ≤ 100 | Cn1cnc(S(=O)(=O)NCCOc2cccc(C3(Cc4ccccc4)CNC3)c2)c1 [Example 51, 1-Methyl-1H-imidazole-4-sulfonic acid {2-[3-(3-benzyl-azetidin-3-yl)phenoxy]-ethyl}-amide] |
| ≤ 100 | CN1CC(Cc2ccccc2)(c2ccc(F)c(OCCNS(=O)(=O)c3cn(C)cn3)c2)C1 [Example 52, 1-Methyl-1H-imidazole-4-sulfonic acid {2-[5-(3-benzyl-1-methyl-azetidin-3-yl)-2-fluoro-phenoxy]-ethyl}-amide] |
| ≤ 1000 | CN1CC(Cc2ccccc2)(c2ccc(F)c(OCCN(C)S(=O)(=O)c3cn(C)cn3)c2)C1 [Example 53, 1-Methyl-1H-imidazole-4-sulfonic acid {2-[5-(3-benzyl-1-methyl-azetidin-3-yl)-2-fluoro-phenoxy]-ethyl}-methyl-amide] |
| ≤ 1000 | Cn1cnc(S(=O)(=O)NCCOc2cccc(C3(Cc4ccccc4)CN(CC(F)(F)F)C3)c2)c1 [Example 54, 1-Methyl-1H-imidazole-4-sulfonic acid (2-{3-[3-benzyl-1-(2,2,2-trifluoro-ethyl)azetidin-3-yl]-phenoxy}-ethyl)-amide] |
| ≤ 1000 | Cn1cnc(S(=O)(=O)NCCOc2cccc(C3(Cc4ccccc4)CN(CC(F)F)C3)c2)c1 [Example 55, 1-Methyl-1H-imidazole-4-sulfonic acid (2-{3-[3-benzyl-1-(2,2-difluoro-ethyl)azetidin-3-yl]-phenoxy}-ethyl)-amide] |
| ≤ 1000 | Cn1cnc(S(=O)(=O)NCCOc2cccc(C3(Cc4ccccc4)CNC(=O)C3)c2)c1 (stereo not drawn) [Example 56, 1-Methyl-1H-imidazole-4-sulfonic acid {2-[3-(3-benzyl-5-oxo-pyrrolidin-3-yl)-phenoxy]-ethyl}-amide] |
| ≤ 10000 | O=C1CC(Cc2ccccc2)(c2cccc(OCCNS(=O)(=O)CC3CC3)c2)CN1 (stereo not drawn) [Example 57, N-{2-[3-(3-Benzyl-5-oxo-pyrrolidin-3-yl)-phenoxy]-ethyl}-C-cyclopropyl-methanesulfonamide] |
| ≤ 1000 | Cn1cc(S(=O)(=O)NCCOc2cccc(C3(Cc4ccccc4)CNC(=O)C3)c2)cn1 (stereo not drawn) [Example 58, 1-Methyl-1H-pyrazole-4-sulfonic acid {2-[3-(3-benzyl-5-oxo-pyrrolidin-3-yl)phenoxy]-ethyl}-amide] |
| ≤ 100 | CN1CCCC(Cc2ccccc2)(c2cccc(OCCNS(=O)(=O)c3cn(C)cn3)c2)C1 (stereo not drawn) [Example 62, 1-Methyl-1H-imidazole-4-sulfonic acid {2-[3-(3-benzyl-1-methyl-piperidin-3-yl)-phenoxy]-ethyl}-amide] |
| ≤ 100 | CN1CCCC(Cc2ccccc2)(c2cccc(OCCNS(=O)(=O)c3cnn(C)c3)c2)C1 (stereo not drawn) [Example 63, 1-Methyl-1H-pyrazole-4-sulfonic acid {2-[3-(3-benzyl-1-methyl-piperidin-3-yl)phenoxy]-ethyl}-amide] |
| ≤ 10000 | CN1CCCC(Cc2ccccc2)(c2cccc(OCCNS(=O)(=O)CC3CC3)c2)C1 (stereo not drawn) [Example 64, N-{2-[3-(3-Benzyl-1-methyl-piperidin-3-yl)-phenoxy]-ethyl}-C-cyclopropyl-methanesulfonamide] |
| ≤ 10000 | Cn1cc(S(=O)(=O)NCc2cccc(C3(Cc4ccccc4)CNC(=O)C3)c2)cn1 (stereo not drawn) [Example 66, 1-Methyl-1H-pyrazole-4-sulfonic acid 3-(3-benzyl-5-oxo-pyrrolidin-3-yl)benzylamide] |
| ≤ 100 | Cn1cc(S(=O)(=O)NCc2cccc(C3(Cc4ccccc4)CCNC3)c2)cn1 (stereo not drawn) [Example 67, 1-Methyl-1H-pyrazole-4-sulfonic acid 3-(3-benzyl-pyrrolidin-3-yl)benzylamide] |
| ≤ 1000 | O=S(=O)(CC1CC1)NCc1cccc(C2(Cc3ccccc3)CCNC2)c1 (stereo not drawn) [Example 68, N-[3-(3-Benzyl-pyrrolidin-3-yl)-benzyl]-C-cyclopropyl-methanesulfonamide] |
| ≤ 1000 | CN1CCC(Cc2ccccc2)(c2cccc(CNS(=O)(=O)c3cnn(C)c3)c2)C1 (stereo not drawn) [Example 69, 1-Methyl-1H-pyrazole-4-sulfonic acid 3-(3-benzyl-1-methyl-pyrrolidin-3-yl)-benzylamide] |
| ≤ 100 | COCCN1CC(Cc2ccccc2)(c2cccc(OCCNS(=O)(=O)c3cn(C)cn3)c2)C1 [Example 73, 1-Methyl-1H-imidazole-4-sulfonic acid (2-{3-[3-benzyl-1-(2-methoxy-ethyl)azetidin-3-yl]-phenoxy}-ethyl)-amide] |

| Compound | Ki [nM] |
| --- | --- |
| CCCS(=O)(=O)N(C)Cc1cccc(C(CN)C2(c3ccc(Cl)cc3)CCC2)c1 (stereo not drawn) [Example 42, N-(3-{2-Amino-1-[1-(4-chlorophenyl)cyclobutyl]ethyl}benzyl)-N-methylpropane-1-sulfonamide hydrochloride] | ≤ 10000 |
| CN(Cc1cccc(C(CN)C2(c3ccc(Cl)cc3)CCC2)c1)S(=O)(=O)CCCF (stereo not drawn) [Example 43, N-(3-{2-Amino-1-[1-(4-chlorophenyl)cyclobutyl]ethyl}benzyl)-3-fluoro-N-methylpropane-1-sulfonamide hydrochloride] | ≤ 10000 |
| O=S(=O)(CC1CC1)NCCOc1cccc(C2(Cc3ccccc3)CCNC2)c1 (stereo not drawn) [Example 59, N-{2-[3-(3-Benzyl-pyrrolidin-3-yl)-phenoxy]-ethyl}-C-cyclopropyl-methanesulfonamide] | ≤ 100 |
| Cn1cc(S(=O)(=O)NCCOc2cccc(C3(Cc4ccccc4)CCNC3)c2)cn1 (stereo not drawn) [Example 60, 1-Methyl-1H-pyrazole-4-sulfonic acid {2-[3-(3-benzyl-pyrrolidin-3-yl)phenoxy]-ethyl}-amide] | ≤ 100 |
| Cn1cnc(S(=O)(=O)NCCOc2cccc(C3(Cc4ccccc4)CCNC3)c2)c1 (stereo not drawn) [Example 61, 1-Methyl-1H-imidazole-4-sulfonic acid {2-[3-(3-benzyl-pyrrolidin-3-yl)phenoxy]-ethyl}-amide] | ≤ 100 |
| CN1CCC(Cc2ccccc2)(c2cccc(OCCNS(=O)(=O)c3cn(C)cn3)c2)C1 (stereo not drawn) [Example 70, 1-Methyl-1H-imidazole-4-sulfonic acid {2-[3-(3-benzyl-1-methyl-pyrrolidin-3-yl)-phenoxy]-ethyl}-amide] | ≤ 100 |
| Cn1cnc(S(=O)(=O)NCCOc2cccc(C3(Cc4ccccc4)CCN(C(=O)C(F)F)C3)c2)c1 (stereo not drawn) [Example 71, 1-Methyl-1H-imidazole-4-sulfonic acid (2-{3-[3-benzyl-1-(2,2-difluoro-acetyl)pyrrolidin-3-yl]-phenoxy}-ethyl)-amide] | ≤ 1000 |
| Cn1cnc(S(=O)(=O)NCCOc2cccc(C3(Cc4ccccc4)CN(CCF)C3)c2)c1 [Example 72, 1-Methyl-1H-imidazole-4-sulfonic acid (2-{3-[3-benzyl-1-(2-fluoro-ethyl)azetidin-3-yl]-phenoxy}-ethyl)-amide] | ≤ 100 |
| CN1CCC(Cc2ccccc2)(c2cccc(OCCN(C)S(=O)(=O)c3cn(C)cn3)c2)C1 (stereo not drawn) [Example 74, 1-Methyl-1H-imidazole-4-sulfonic acid {2-[3-(3-benzyl-1-methyl-pyrrolidin-3-yl)-phenoxy]-ethyl}-methyl-amide] | ≤ 1000 |
| Cn1cnc(S(=O)(=O)NCCOc2cccc(C3(Cc4ccccc4)CCN(CCF)C3)c2)c1 (stereo not drawn) [Example 75] | ≤ 100 |
| Cn1cnc(S(=O)(=O)NCCOc2cccc(C3(Cc4ccccc4)CCN(CC(C)(C)C)C3)c2)c1 (stereo not drawn) [Example 76, 1-Methyl-1H-imidazole-4-sulfonic acid (2-{3-[3-benzyl-1-(2,2-dimethylpropyl)-pyrrolidin-3-yl]-phenoxy}-ethyl)-amide] | ≤ 100 |
